Active and inactive are the calls of the source. The rule behind the calls is not given here.
Legend:
[1] = system: Mycobacterium tuberculosis variant bovis BCG; assay: Inhibition of Mycobacterium bovis BCG QcrB assessed as decrease in ATP level at 0.01 to 10 uM incubated for 20 hrs by Bactiter-Glo microbial cell viability assay; settings: dose 0.01-10 µM
[2] = system: Mycobacterium tuberculosis variant bovis BCG; assay: Inhibition of Mycobacterium bovis BCG QcrB harboring CydAB deletion mutant assessed as decrease in ATP level at 0.01 to 10 uM incubated for 20 hrs by Bactiter-Glo microbial cell viability assay; settings: dose 0.01-10 µM
[3] = system: Mycobacterium tuberculosis variant bovis BCG; assay: Inhibition of Mycobacterium bovis BCG QcrB harboring CydAB deletion mutant assessed as decrease in ATP level at 10 uM incubated for 20 hrs by Bactiter-Glo microbial cell viability assay
[4] = system: Mycobacterium tuberculosis variant bovis BCG; assay: Inhibition of Mycobacterium bovis BCG QcrB assessed as decrease in ATP level at 10 uM incubated for 20 hrs by Bactiter-Glo microbial cell viability assay

| SMILES | inhibition [1] | inhibition [2] | inhibition [3] | inhibition [4] |
| --- | --- | --- | --- | --- |
| COc1nc2ccc(Br)cc2cc1[C@@H](c1ccccc1)[C@@](O)(CCN(C)C)c1cccc2ccccc12 | Active | Active |  |  |
| O=C(NCc1ccc(N2CCC(c3ccc(OC(F)(F)F)cc3)CC2)cc1)c1sc2c([N+](=O)[O-])cc(C(F)(F)F)cc2[n+]1[O-] |  |  | Active | Active |
| O=C(NCc1ccc(N2CCC(c3ccc(OC(F)(F)F)cc3)CC2)cc1)c1nc2cc(C(F)(F)F)cc([N+](=O)[O-])c2s1 |  |  | Active | Active |
| CCc1nc2ccc(Cl)cn2c1C(=O)NCc1ccc(N2CCC(c3ccc(OC(F)(F)F)cc3)CC2)cc1 [TELACEBEC] | Active | Active |  |  |
